SMILES strings stand for the structures.

For the compound `O=C(c1cccnc1)N1CCC(c2nc(-c3cnc(-c4ccccc4)nc3)c[nH]2)CC1`, the melting point (as a rule, the temperature of the solid-liquid transition) was 234 °C.
In turn, `N#Cc1cnc2c(c1)[nH]c(=O)n2[C@H]1CC[C@H](O)CC1` gave a melting point of 274 to 275 °C.
`CCOC(=O)C(C)(C)OCc1oc(-c2ccc(Cl)cc2)nc1C` returned a melting point of 75 to 76 °C.
To `CC(=O)Oc1ccc(C2=COc3ccccc3O2)cc1` belongs 123 to 125 °C; to `COc1cc(-c2ccccc2F)c(Cl)cc1C(=O)N1Cc2ccc(C(=O)N(CC(O)CO)CC(O)C(O)CO)n2Cc2ccccc21` (stereo unspecified), 192 to 194 °C.
Then `O=[N+]([O-])C=C1SCCCN1S(=O)(=O)Cc1ccccc1`, with 140 to 141 °C; and `COc1cccc(/C=C/c2nc3c([nH]2)c(=O)n(C)c(=O)n3C)c1OC`, with 289 to 290 °C.
To `Cn1cc(C(=O)O)c2nc3ncccc3cc2c1=O` belongs over 300 °C; to `O=C(O)c1ccc(C(=O)/C=C/c2cc(-c3cccs3)ccc2N2CCCC2)cc1`, 208 to 209 °C.
In the case of `CC(C)(C)n1nc(-c2ccoc2)c(C(N)=O)c1N`, the melting point came to 177 °C.
On to `CC(=O)Nc1sc(-c2ccc(F)cc2)cc1C(N)=O`, for which the melting point was 230 to 233 °C.
Then `COc1ccc(N2CCN(CCC(O)COc3ccccc3)CC2)cc1` (stereo unspecified), with 95 to 97 °C; and `N#CC(=Cc1ccc2c(c1)OCCO2)c1cccnc1`, with 158 to 159 °C; and `O=C(c1ccccc1)c1cc(Cl)ccc1OCCCl`, with 73 to 74.5 °C.
Compound `CC1COC(C2CCC(O)C2)N1C(=O)c1ccccc1` (stereo unspecified) had a melting point of 83 to 85 °C.
Then `O=C(O)C1OCC(O)C(O)C1O` (stereo unspecified), with 194 to 196 °C; and `Nc1cc([N+](=O)[O-])ccc1CO`, with 126 to 128 °C.
To `O=C(N[C@H]1CC[C@H](CCN2CCC(c3cccc4c3CCO4)CC2)CC1)c1ccc(C(F)(F)F)cc1` belongs 228 °C; to `CCC(=O)N[C@H]1CC[C@H](CCN2CCC(c3cccc4c3CCO4)CC2)CC1`, 192 °C; to `O=C(Cc1ccc(C(F)(F)F)cn1)c1ccc(Cl)cc1`, 114 to 116 °C.
`CC(C)n1c(NC(=O)c2ccccc2)nc2ccccc2c1=O` returned a melting point of 156 to 158 °C.
To `COC1=C(OC)C(=O)C(CCCCCCCCCCCCCO)=C(C)C1=O` belongs 65 to 66 °C; to `CON1CCN2C(=O)C(c3cc(C)ccc3C)C(=O)N2CC1`, 167 to 169 °C; to `O=C(NCCc1ccccc1F)[C@@H]1Cc2ccccc2N1`, 135 °C.
`CC(=O)OC1=C([C@H]2CC[C@H](c3ccc(Cl)cc3)CC2)C(=O)c2ccccc2C1=O` showed a melting point of 149 to 152 °C.
Then `CC1Oc2c(cc(CN3CCN(c4ccc(C#N)cc4)CC3)cc2C2CC2)NC1=O` (stereo unspecified), with 194 to 196 °C; and `CCn1c(=O)c2c(ncn2CCCCC2CO2)n(CC)c1=O` (stereo unspecified), with 58 to 59 °C; and `Cc1ccccc1-c1cc2cnc(N)nc2n(C)c1=O`, with 239 °C.
To `CC(C)NC(=O)Nc1ccnc(Br)c1` belongs 136 to 138 °C; to `CCC1(C)NC(=O)N=C1SCc1ccccc1N(C)C` (stereo unspecified), 111 to 113 °C; to `C[C@@H]1CC(=O)CC(C)(C)C1=O`, 91 to 92 °C.
Compound `COC(=O)C1=C(C)NC(C)=C(C(=O)OC)C1CCCCC(=O)O` returned a melting point of 150 to 151 °C.
To `CN(Cc1ccccc1)Cc1c(-c2ccc(N)cc2)sc2c1c(=O)n(-c1ccccc1)c(=O)n2Cc1c(F)cccc1F` belongs 205 to 207 °C; to `COc1ccc(Oc2c(C)cc([N+](=O)[O-])cc2C)cc1`, 117 to 120 °C.
To `NC(=O)c1csc2ccc([N+](=O)[O-])cc12` belongs 243 to 250 °C; to `CN1CCN(c2ccccc2C=C2C(=O)Nc3ccc(Cl)cc32)CC1`, 235 to 237 °C.
`COc1cc(C)c(S(=O)(=O)NC(=S)Nc2nc(-c3ccc(C4CCCCC4)cc3)c(C)s2)c(C)c1`: the melting point is 177 to 178 °C.
In the case of `CN1C(=O)N(c2c(Cl)cccc2Cl)Cc2cnc(Nc3ccc(CCO)cc3)nc21`, the melting point was 148 to 151 °C.
`N#Cc1ccccc1N1CCN(CCC=C2c3ccccc3CCc3ccccc32)CC1` registered a melting point of 112 to 114 °C.
To `O=C(Nc1c(Cl)cccc1Cl)C1c2ccccc2COc2ccc(Br)cc21` (stereo unspecified) belongs 185 to 187 °C; to `Cc1c(N)cccc1C(=O)c1ccc(Cl)cc1`, 65 °C.
Regarding `c1ccc2c(c1)-c1ccccc1C21c2ccccc2-c2ccccc21`, the melting point amounted to 198 °C.
To `CS(=O)(=O)Nc1ccc(C=O)cc1Oc1ccc(F)cc1F` belongs 156 to 157 °C; to `COC(=O)c1nc2cc(OC)c(OC)cc2n(C)c1=O`, 222 °C; to `CCOC(=O)C1COc2c(C(=O)c3ccccc3)cc(Br)cc21` (stereo unspecified), 100 to 101 °C.
To `Brc1ccc2nc(-c3ccccc3)nn2c1` belongs 146 °C; to `Cc1cc(C(=O)c2[nH]c3cc(Cl)ccc3c2NC(=O)CC(C)C)ccc1Cl`, 202 to 203 °C; to `CCCOC(=O)c1cc(=O)c(Sc2ccc(OC)cc2)co1`, 91 to 93 °C.
Then `CC(=O)c1c(C(C)C)nn2ccccc12`, with 74 °C.
On to `CCc1nc(-c2ccc(OCCCc3cccnc3)cc2)no1`, for which the melting point was in the range of 63 to 64 °C.
Then `O=C1NCN2CCC1CC2`, with 125 to 126 °C.
Then `COC(Cn1cncn1)(c1ccc(F)cc1F)C(F)(F)S(=O)(=O)CCO` (stereo unspecified), with 108 to 110 °C.
To `CNC(=O)c1cc2c(Oc3ccc(COCCOC)cc3)cncc2s1` belongs 133 to 134 °C; to `O=C1OC(Cc2ccccc2)(Cc2ccccc2)C2CNCCN12` (stereo unspecified), 132 to 133 °C.
Regarding `COC1([N+](=O)[O-])C=CC(C=Cc2ccccc2)=CC1` (stereo unspecified), the melting point lay in the range of 131 to 132 °C.
To `CC(C)(C)CCNC(=O)N(CCCl)N=O` belongs 43 to 43.5 °C.
To `COc1cc(C(=O)C=Cc2cc(O)c(O)c([N+](=O)[O-])c2)cc(OC)c1OC` belongs 213 to 216 °C; to `CCSc1nc(NC(C)=O)ccc1F`, 110 to 114 °C.
In the case of `CC(=O)OC1CC2=CCC3C4CCC(C(C)CI)C4(C)CCC3C2(C)C(OC(C)=O)C1` (stereo unspecified), the melting point was 135 to 136 °C.
Then `O=c1[nH]c2sc3c(F)cccc3c2[nH]c1=O`, with over 35 °C.
Then `O=C(Nc1cccc2ccccc12)NC(Cc1ccc(C(F)(F)F)cc1)C(O)c1ccc(F)cc1` (stereo unspecified), with 222 to 223 °C; and `CC(O)COc1ccc(-c2ccc(C(CC3CCOCC3)c3ccc(S(=O)(=O)C4CC4)cc3)[nH]2)nc1` (stereo unspecified), with 116 to 118 °C.
`COc1cc2ncnc(-c3cn(S(C)(=O)=O)c4ccccc34)c2cc1OC` registered a melting point of over 220 °C.
As to `CCOc1ccc(-c2ccc3c(c2)C=C(C(=O)Nc2ccc(CN(C)C4CCOCC4)cc2)CCS3=O)cc1` (stereo unspecified), the melting point is 192 to 195 °C.
As to `COc1ccc(S(=O)(=O)Nc2ccccc2NC(=S)c2ccc(F)cc2)cc1`, the melting point is 155 to 156 °C.
To `Nc1ccc(Oc2ccc3cccnc3c2)cc1` belongs 131 °C.
